# In US7264947B2, “Activity dependent neurotrophic factor III (ADNF III)” (United States of America, as represented by the Secretary …, priority 1997, dated 2007):
# Where two headings read alike, the source gives them in different places.
# B1: clone 25: full length ADNF III expressed from clone 25, tested as E. coli protein extract (protein)
# chain: MVNRLSIPKPNLNSTGVNMMSNVHLQQNNYGVKSVGQSYGVGQSVRLGLGGNAPVSIPQQSQSVKQLLPSGNGRSFGLGAEQRPPAAARYSLQTANTSLPPGQVKSPSVSQSQASRVLGQSSSKPPPAATGPPPSNHCATQKWKICTICNELFPENVYSVHFEKEHKAEKVPAVANYIMKIHNFTSKCLYCNRYLPTDTLLNHMLIHGLSCPYCRSTFNDVEKMAAHMRMVHIDEEMGPKTDSTLSFDLTLQQGSHTNIHLLVTTYNLRDAPAESVAYHAQNNAPVPPKPQPKVQEKADVPVKSSPQAAVPYKKDVGKTLCPLCFSILKGPISDALAHHLRERHQVIQTVHPVEKKLTYKCIHCLGVYTSNMTASTITLHLVHCRGVGKTQNGQDKTNAPSRLNQSPGLAPVKRTYEQMEFPLLKKRKLEEDADSPSCFEEKPEEPVVLALDPKGHEDDSYEARKSFLTKYFNKQPYPTRREIEKLAASLWLWKSDIASHFSNKRKKCVRDCEKYKPGVLLGFNMKELNKVKHEMDFDAEWLFENHDEKDSRVNASKTVDKKHNLGKEDDSFSDSFEHLEEESNGSGSPFDPVFEVEPKIPSDNLEEPVPKVIPEGALESEKLDQKEEEEEEEEEDGSKYETIHLTEEPAKLMHDASDSEVDQDDVVEWKDGASPSESGPGSQQISDFEDNTCEMKPGTWSDESSQSEDARSSKPAAKKKATVQDDTEQLKWKNSSYGKVEGFWSKDQSQWENASENAERLPNPQIEWQNSTIDSEDGEQFDSMTDGVADPMHGSLTGVKLSSQQA
# modifications: left off: large carriers
# notes: full length ADNF III expressed from clone 25, tested as E. coli protein extract
# Legend:
# [1] = test system: choline acetyl transferase; assay: brain ChAT (choline acetyl transferase) activity in ApoE-deficient mice; format: in vivo; conditions: daily subcutaneous injections from birth to 14 days, measured at 21 days
# Protocol: The graph depicts incorporation of radio-labeled choline into acetylcholine. Experiments were conducted as described. Apo-E deficient mice are designated: ApoE; 100% activity in the control (C57B6) mice indicated 669758.4 pmole/mg protein/min. As the experiments were repeated 3-5 times the results were standardized against the control calibrated at 100% per each experiment. ApoE-deficient mice daily injected with peptides are designated ADNF-14, ADNF-9, and NAP, respectively.
# ChAT activity was measured according to published procedures (Formum et al., Neurochem. 24:407-409 (1975)). Brains were homogenized with 10 volumes of 50 mM phosphate buffer containing 300 mM NaCl, 20 mM EDTA, and 0.5% triton. The homogenates were centrifuged at 12,000×g for 15 min., and […] of supernatant was mixed with […] of a solution of […] ^14C-acetyl CoA ([…] NEN), 20 mM acetylcholine, 1.6 mM choline chloride, 0.25 mM eserine, and phosphate buffer. Incubation was 15 min. at 37° C. The reaction was terminated and radioactivity was measured in a beta-counter. • 21. Apolipoprotein E (ApoE) Deficient Mouse Model
# (§1) ApoE knockout mice and normal controls were a gift from the late Prof. Shlomo Eisenberg of Tel Aviv University, originally provided by Dr. J. L. Breslow (Plump et al., Cell 71:343-353 (1992)). The ApoE knockout mice were obtained from embryonic stem cells OLA 129 in C57B6×FVB mice (as described). Age-matched controls were inbred C57B6 mice. Groups of mouse pups were treated from birth until the age of 14 days. Daily subcutaneous injections included: […] saline (days 1 through 4), […] saline (days 5 through 10) and […] saline (days 11-14).
# ChAT activity was measured according to published procedures (Formum et al., Neurochem. 24:407-409 (1975)).
# ApoE-deficient mice = assay: developmental milestones (placing response, cliff avoidance) in ApoE-deficient mice; format: in vivo; conditions: for acquisition of the placing response and the cliff avoidance response: daily injection; for marked improvement of placing response at the first day of treatment: tested 60 min. after injection
# Description: Animals (15-37 per experimental group, 5-8 per litter) were submitted to placing response assays daily following injection of: 1. saline (open circles, C57B6 mice=control, n=37, closed circles, ApoE deficient=ApoE, n=22). Experiments were repeated three times. Score indicates: 0=no reaction, 1=time to acquire a response shorter than 15 seconds; 2=time to acquire a response shorter than 10 seconds; 3=time to acquire a response shorter than 5 seconds. Age (days) indicate: the age of the tested animals in days. Results are mean±SEM.
# as §1
# Developmental milestones were measured using at least three dams with […] each for every experimental point. All observations were made between 12 noon and 4 pm. From day one through day six, mice were weighed and tested 60 min. after the daily injection. Placing is a behavioral parameter that is measured as the time elapsing between contact of the foot against the edge of an object and its placing on the top of the same object.
# Further measurements in the Apo-E-deficient mouse included assessments of the time of onset of developmental milestones of behavior. […] A significant difference was observed among the treatment groups on the first day of testing (P<0.0001), with inbred C57B6 mice developing faster than the ApoE-deficient animals. […] NAP-treated animals were the fastest.
# [2] = test system: cerebral cortical cultures; format: cell-based, newborn rats; conditions: for dilutions giving significant neuroprotection against tetrodotoxin: dilutions of a 1 mg/ml protein solution (E. coli extract) in PBS, 1 μM tetrodotoxin, five days
# ADNF III mRNA = assay: mimic polymerase chain reaction of ADNF III mRNA in mouse embryos incubated in vitro; format: cell-based; conditions: 9.5-day-old mouse embryos incubated in vitro for four hours, ratio with cyclophilin mRNA
# astrocytes = assay: western blot of secreted ADNF-like immunoreactivity in astrocyte conditioned medium; format: cell-based, rat
# Description: FIGS. 4A-B. FIG. 4A illustrates the western blot hybridization for immunological detection of the cloned ADNF III protein from bacterial extracts. Bacterial extracts expressing clone p25 were subjected to 10% SDS-polyacrylamide gel electrophoresis followed by western blot analysis with the antibodies used for cloning. […] CBB=Coomassie Brilliant Blue (protein) staining of the same lanes that were subjected western blot analysis. […] FIG. 4B illustrates immunological identification of a secreted ADNF III protein in astrocyte conditioned medium. Astrocyte-conditioned medium was prepared as described supra (see Brenneman & Gozes, J. Clin. Invest. 97:[…] (1996)), with a protein of a high molecular weight identified as the ADNF III molecule by western blot hybridization. SDS-polyacrylamide gel electrophoresis was performed as indicated in the above cited paper. Astroglial cultures obtained from newborn rat cerebral cortex were utilized. Cell extracts and conditioned medium from astrocytes that were treated or untreated with VIP (+, −) were subjected to electrophoresis through 10% polyacrylamide slab gel containing 0.1% SDS. Western blot analysis was performed with antibodies utilized for the cloning (anti-SALLRSIPA=α1).
# a. Astrocytes: Astrocytes were prepared from 1-day-old (Sprague-Dawley) rats. […]
# [3] = test system: cerebral cortical cultures; assay: neuroprotection against β-amyloid peptide (25-35) neurotoxicity in cerebral cortical cultures; format: cell-based, newborn rats; conditions: dilutions of a 1 mg/ml protein solution (E. coli extract) in PBS, 25 μM β-amyloid fragment 25-35, five days
# neuronal cell death = assay: neuroprotective effects of ADNF III (summary statement); format: cell-based
# Description: The present invention relates to the discovery of a nucleic acid encoding a novel neuroprotective polypeptide, i.e., Activity Dependent Neurotrophic Factor III (ADNF III), also called Activity Dependent Neuroprotective Protein (ADNP). […] Based on the recognized homology between ADNF I and hsp60, a heat shock protein, and PIF1, a DNA repair protein, these two epitopes were utilized to prepare antibodies which, in turn, were used to screen a mouse cDNA-expression library to identify the new neuroprotective polypeptide ADNF III. One mouse ADNF III cDNA clone consists of about 2418 base pairs of an open reading frame, which encodes an ADNF III polypeptide of about 806 amino acids, pI 5.85 (nucleotide sequence, SEQ ID NO:4; amino acid sequence, SEQ ID NO:3, see FIG. 1). An additional mouse cDNA has been cloned, encoding an ADNF III polypeptide of about 828 amino acids, pI 5.99 (nucleotide sequence, SEQ ID NO:54; amino acid sequence, SEQ ID NO:55; see FIG. 11). Human cDNAs encoding ADNF III have also been cloned (“H3” nucleotide sequence, SEQ ID NO:2; “H3” amino acid sequence, SEQ ID NO:1; “H3” nucleotide sequence, SEQ ID NO:56 and FIG. 12; “H3” amino acid sequence, SEQ ID NO:57 and FIG. 12; “H7” nucleotide sequence, SEQ ID NO:58 and FIG. 13; and “H7” amino acid sequence, SEQ ID NO:59 and FIG. 13). […] The promoter sequence for ADNF III has also been cloned (SEQ ID NO:60 and FIG. 14).
molecule,measurement,setting,value
VLGGGSALLRSIPA [ADNF-14],brain ChAT activity compared with vehicle-treated or untreated ApoE-deficient mice,[1],did not significantly improve
same,level of performance reached in placing response,ApoE-deficient mice,never reached the level of performance of the NAP or ADNF-9 animals
same,day on which a significant difference between treated and untreated animals began to appear (placing response),ApoE-deficient mice; P<0.05,third postnatal day
same,acquisition of the placing response and the cliff avoidance response,ApoE-deficient mice,showed acceleration
same,marked improvement of placing response at the first day of treatment,ApoE-deficient mice,not
SVRLGLGGNAPVSIPQQS [reference compound],neuroprotection (in words),"[2]; FIG. 6A/6B, toxin for the control curves not stated",inactive
"VIP: 28-amino acid peptide, secretagogue for ADNF",increase in ADNF III mRNA,ADNF III mRNA,two-fold
same,increase in the secreted 60 KD ADNF-like immunoreactivity,astrocytes,up to 2 fold
SALLRSIPA [ADNF-9],brain ChAT activity compared with vehicle-treated or untreated ApoE-deficient mice,[1],did not significantly improve
same,placing response from the second postnatal day onwards,ApoE-deficient mice; P<0.0001,best performers
same,acquisition of the placing response and the cliff avoidance response,ApoE-deficient mice,showed acceleration
same,marked improvement of placing response at the first day of treatment,ApoE-deficient mice,marked improvement
B1,dilutions giving significant neuroprotection against tetrodotoxin,[2],10^−15-10^−13
same,dilutions giving significant neuroprotection against tetrodotoxin,[2]; listed as clone p25,10^−14
same,dilutions giving significant neuroprotection against β-amyloid,[3],> 10^−15
same,dilutions giving significant neuroprotection against β-amyloid,[3]; listed as clone p25,10^−14
same,EC50 of neuroprotective effects,neuronal cell death,in the femtomolar range
